Measurements from US20160046904A1, “Method For Culturing Hepatoblast-Like Cells And Culture Product Thereof” (NATIONAL INSTITUTES OF BIOMEDICAL INNOVATION, HEALTH AND …, priority 2013, published 2016).

Legend:
[1] = test system: HBCs derived from ES cells (H9); experiment: ALB/CK7 colony count of HBCs cultured on laminin-coated culture dishes (immunostaining); assay type: cell-based, human; conditions: HBCs seeded at 200 cells/cm^2 on laminin-coated dish, medium 3, 5 days after seeding
Method: (§1) In Example 1 and Comparative Example 1, with regard to HBCs derived from ES cells obtained in Reference Example 2, properties of cells treated with laminins were confirmed. The coating treatment was performed on cell culture dishes by using various types of human laminins with different isoforms (laminin 111 (LN111), laminin 211 (LN211), laminin 411 ([…]), and laminin 511 (LN511)). The coating treatment was conducted by preparing 20 μg/ml of each Laminin Coating Solution, adding the Laminin Coating Solution to each well at 5 μg/cm^2, and leaving the cell culture dishes at room temperature for 1 hour or more.
In Example 2 and Comparative Example 2, HBCs derived from ES cells (H9) obtained in Reference Example 2 were seeded in each well of various types of laminin-coated culture dishes at 200 cells/cm^2 in a similar manner to Example 1 and Comparative Example 1, the HBCs were cultured by using the medium 3, and the expressions of ALB and CK7 by cultured cells were confirmed. The HBCs were fixed by using a 4% paraformaldehyde solution 5 days after seeding the HBCs, immunostaining was performed, and thereafter, the numbers of colonies which were ALB positive (+)/CK7 positive (+), ALB positive (+)/CK7 negative (−) and ALB negative (−)/CK7 […] were counted. When the cells were cultured in the LN111-coated culture dish, the highest number of the ALB positive (+)/CK7 positive (+) colonies, which were colonies of hepatoblast-like cells, was able to be confirmed.

[2] = test system: HBCs derived from ES cells (H9) and HBCs derived from iPS cells (Dotcom); experiment: Repeated passage (15 times) of HBCs on LN111-coated culture dish: cell number and AFP flow cytometry; assay type: cell-based, human
Method: In Example 3, the proliferative capacities of HBCs derived from ES cells (H9) obtained in Reference Example 2 and HBCs derived from iPS cells (Dotcom) generated by the same procedure were confirmed. The cells derived from ES cells or those derived from iPS cells on day 9 obtained by treating the cells by the same procedure as in Reference Example 2 were seeded in each well of the LN111-coated culture dish at 7.5×10^4 cells/cm^2, and the medium was exchanged after 15 minutes (the number of times of passage was 0, on day 9). After that, the cells were cultured for from 6 days to 7 days with the medium being exchanged every day, a cell suspension was prepared so that the number of cells was 7.5×10^4 cells/cm^2, and the cells were passaged on the LN111-coated culture dish. Such passage operations were performed 15 times.

[3] = test system: HBCs derived from ES cells; experiment: Proliferation of HBCs on various laminin-coated culture dishes; assay type: cell-based, human; conditions: attached HBCs cultured for 7 days; compared among LN111, LN211, LN411, LN511 coated dishes (FIG. 8)
Method: as §1
(§2) Next, the cells on day 9 after treated by the same procedure as in Reference Example 2 were seeded on each well of various types of laminin coated culture dishes at 7.5×10^4 cells/cm^2, the medium was exchanged after 15 minutes, and cells attached to the dishes were used as HBCs and cells not attached to the dishes were used as NHBCs (see FIG. 5). With regard to cells before passage (the cell population which contained both HBCs and NHBCs: before), HBCs, and NHBCs, the expressions of integrin α6 (ITGA6) and integrin β1 (ITGB1) were confirmed. As a result, almost all cells of HBCs were confirmed to be co-positive (FIG. 7). The HBCs attached to the dishes were each further cultured for 7 days. […]

[4] = test system: HBCs from human ES cells (H9); experiment: Marker positive rates of HBCs passaged 8 times on LN111- or LN111E8-coated culture dish (flow cytometry); assay type: cell-based
Method: By the same procedure as in Example 9, HBCs were seeded to each well of various types of laminin coated culture dishes at 7.5×10^4 cells/cm^2 by using a LN111- or LN111E8-coated culture dish, and the medium was exchanged after 15 minutes (the number of passages of 0, day 9). After that, the cells were cultured for from 6 days to 7 days with the medium being exchanged every day, and a cell suspension was prepared so that the number of cells was 7.5×10^4 cells/cm^2. Then, the cells were passaged on the LN111-coated culture dish or the LN111E8-coated culture dish. At the time when such passage operations were repeated 8 times (P8), the positive rate of AFP (%) was confirmed by flow cytometry analysis. […] In addition, also with regard to markers other than AFP (CD133, EpCAM, ALB, CK7, and CK19), their positive rates were confirmed by flow cytometry analysis at the time when the passage culture was repeated up to 8 times (P8).

[5] = test system: HBCs derived from ES cells; experiment: AFP expression of cells cultured on various laminin-coated culture dishes; assay type: cell-based, human; conditions: cells cultured on laminin-coated dish, compared with cells immediately after passage (P0) (FIG. 9)
Method: as §1, §2

[6] = test system: HBCs derived from ES cells (H9); experiment: Differentiation induction of LN111-maintained HBCs to bile duct epithelial cells (EGF, ILGF2, collagen gel); assay type: cell-based, human; conditions: HBC P10 maintained on LN111 vs HBC P0; 14 days differentiation
Method: Specifically, in Example 6, HBCs (H9) without passage (HBC P0), HBCs passaged 10 times (HBC P10), and HBCs derived from a single cell (clone) were embedded in collagen gel by using a medium containing EGF (50 ng/ml) and ILGF2 (20 ng/ml), and were cultured for 14 days. Then, the expression of each of marker genes before and after the differentiation induction treatment to a bile duct by EGF and ILGF2 was confirmed. The expression was confirmed by a RT-PCR technique (FIG. 17). Commercially available primer sets and reagents were used for RT-PCR measurement. SOX9 and Type IV collagen are markers of bile duct epithelial cells, and ALB and αAT are markers of mature hepatocytes.
Each of relative expression levels of marker genes of bile duct epithelial cells and mature hepatocytes was confirmed by defining the expression level in cells of […] before being subjected to the differentiation induction as 1. The expressions of markers of bile duct epithelial cells were increased by the differentiation induction treatment. In addition, the expression levels of bile duct marker genes (SOX9 and Type IV collagen) by bile duct epithelial cells which were induced to differentiate from HBC P10 were higher than those which were induced to differentiate from HBC P0 (FIG. 17).

[7] = test system: HBCs derived from ES cells (H9); experiment: Differentiation induction of LN111-maintained HBCs to hepatocytes (HGF, OsM, DEX on Matrigel); assay type: cell-based, human; conditions: HBC P10 maintained on LN111 vs HBC P0; 14 days differentiation
Method: In view of the foregoing, in Example 5, HBCs (H9) with the number of passages of 0 (HBC P0), HBCs (H9) with the number of passages of 10 (HBC P10), and HBCs derived from a single cell (HBC clone) were cultured in a medium containing HGF, OsM (20 ng/ml), and DEX (10^−6 M) on Matrigel for 14 days, and the expression of each of marker genes before and after the differentiation induction treatment into liver by HGF, OsM, and DEX was confirmed. Clone cells were obtained by seeding cells on a culture dish at 200 cells/cm^2. The expression of each of gene markers was confirmed by real-time RT-PCR. Commercially available primer sets and reagents were used for real-time RT-PCR measurement. […]
Each of relative expression levels of marker genes of mature hepatocytes was confirmed by defining the expression level by human frozen hepatocytes cultured for 48 hours after being seeded on a culture dish as 1. […] It was confirmed that the differentiation rate into mature hepatocytes of hepatocytes obtained by differentiation induction on the HBCs (H9) with the number of passages of 10 (HBC P10) was higher than that of the hepatocytes obtained by differentiation induction on the HBCs (HBC P0), also from the ASGR1 positive cell rates analyzed by flow cytometry (FIG. 16A) and the amounts of ALB secretion and Urea secretion (FIGS. 16B and 16C).

Substance	number of ALB+/CK7+ colonies [1]	number of ALB+/CK7− colonies [1]	number of ALB−/CK7+ colonies [1]	AFP positive cells ([2]; HBC P1, P10, P15, flow cytometry (FIG. 11))	proliferation of cultured cells over passages ([2]; passage every 6 to 7 days, 15 passages (FIG. 10))	proliferation rate of HBCs [3]	positive rate of AFP after passage ([4]; passaged 8 times (P8) (FIG. 24))	positive rates of markers other than AFP (CD133, EpCAM, ALB, CK7, CK19) ([4]; passaged 8 times (P8) (FIG. 25))	expression of AFP [5]	differentiation ability to bile duct epithelial cells [6]	differentiation efficiency and differentiation ability to hepatocytes [7]
LN511: human recombinant laminin 511, comparative dish coating	14	2	36								
LN211: human recombinant laminin 211, comparative dish coating	25	3	12								
LN411: human recombinant laminin 411, comparative dish coating	12	6	31								
LN111: human recombinant laminin 111 (α1β1γ1), used to coat cell culture dishes	82	2	5	high expression rates of AFP regardless of the number of passages	continued to proliferate even after passaged 15 times	highest	expressions of AFP were maintained	expressions of all markers were maintained	expressed AFP in a similar manner to a group of cells immediately after passage (P0)	improved	improved
